The test system of this assay is BDF1 mice, P388 leukemia ip, median survival T/C. The assay can be described thus: NCI In Vivo Anticancer Drug Screen. Data for tumor model P388 Leukemia (intraperitoneal) in B6D2F1 (BDF1) mice. The conditions noted are these: endpoint: median survival time, higher = longer survival. In outline: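 In tumour-bearing mice, survival after compound treatment is set against the vehicle group and given as a quotient.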

Where [1] appears, read: dose: 25.0 mg/kg/injection, schedule: Q04DX003 (ip), vehicle: saline.

The results in this text go back to PubChem BioAssay AID328 (DTP/NCI, 2004).

Several values for one entry are separate records, joined by “and”; a condition that tells them apart may be missing. Identical values can stand only once. Toxic doses and inconclusive results are not listed.

In the case of `O=C1N/C(=N\O)S/C1=C/c1ccc2c(c1)OCO2`, the T/C by setting is: (dose: 100.0 mg/kg/injection, schedule: Q01DX001 (ip), vehicle: saline with Tween-80) 89 % of control; (dose: 200.0 mg/kg/injection, schedule: Q01DX001 (ip), vehicle: saline with Tween-80) 95 % of control; (dose: 400.0 mg/kg/injection, schedule: Q01DX001 (ip), vehicle: saline with Tween-80) 105 % of control.

In the case of `CO/N=C1\CC(C)N2C(=O)C(C(C)C)NC(=O)C(NC(=O)c3c4nc5c(C(=O)NC6C(=O)NC(C(C)C)C(=O)N7C(C)CC(O)C7C(=O)N(C)CC(=O)N(C)C(C(C)C)C(=O)OC6C)ccc(C)c5oc-4c(C)c(=O)c3N)C(CO)OC(=O)C(C)N(C)C(=O)CN(C)C(=O)C12` (centres undefined), the T/C (dose: 0.05 mg/kg/injection, schedule: Q01DX009 (ip), vehicle: saline + alcohol) was 99 % of control; the T/C (dose: 0.1 mg/kg/injection, schedule: Q01DX009 (ip), vehicle: saline + alcohol) was 100 % of control; the T/C (dose: 0.15 mg/kg/injection, schedule: Q04DX003 (ip), vehicle: saline + alcohol) is 98 % of control; the T/C (dose: 0.2 mg/kg/injection, schedule: Q01DX009 (ip), vehicle: saline + alcohol) is 102 % of control; the T/C (dose: 0.3 mg/kg/injection, schedule: Q04DX003 (ip), vehicle: saline + alcohol) is 100 % of control; the T/C (dose: 0.4 mg/kg/injection, schedule: Q01DX001 (ip), vehicle: saline + alcohol) is 92 % of control. For the same compound, the T/C reads like this: (dose: 0.6 mg/kg/injection, schedule: Q04DX003 (ip), vehicle: saline + alcohol) 105 % of control; (dose: 0.8 mg/kg/injection, schedule: Q01DX001 (ip), vehicle: saline + alcohol) 110 % of control; (dose: 1.2 mg/kg/injection, schedule: Q04DX003 (ip), vehicle: saline + alcohol) 107 % of control; (dose: 1.6 mg/kg/injection, schedule: Q01DX001 (ip), vehicle: saline + alcohol) 110 % of control; (dose: 2.4 mg/kg/injection, schedule: Q04DX003 (ip), vehicle: saline + alcohol) 115 % of control; (dose: 3.2 mg/kg/injection, schedule: Q01DX001 (ip), vehicle: saline + alcohol) 118 % of control.

Regarding `C=CCCCCCCCCCCCCCC`, the T/C was 104 % of control (dose: 145.0 mg/kg/injection, schedule: Q01DX010 (ip), vehicle: saline); 113 % of control (dose: 220.0 mg/kg/injection, schedule: Q01DX010 (ip), vehicle: saline); 104 % of control (dose: 330.0 mg/kg/injection, schedule: Q01DX010 (ip), vehicle: saline); 118 % of control (dose: 500.0 mg/kg/injection, schedule: Q01DX010 (ip), vehicle: saline).

Turning to `O=C(CC(=O)C(F)(F)C(F)(F)C(F)(F)F)c1csc2ccccc12`, the T/C (dose: 6.25 mg/kg/injection, schedule: Q01DX009 (ip), vehicle: Klucel (hydroxypropylcellulose) (HPC)) was 91 % of control; the T/C (dose: 12.5 mg/kg/injection, schedule: Q01DX009 (ip), vehicle: Klucel (hydroxypropylcellulose) (HPC)) is 95 % of control; the T/C (dose: 25.0 mg/kg/injection, schedule: Q01DX009 (ip), vehicle: Klucel (hydroxypropylcellulose) (HPC)) was 95 % of control; the T/C (dose: 25.0 mg/kg/injection, schedule: Q01DX009 (ip), vehicle: saline with Tween-80) was 95 % of control; the T/C (dose: 50.0 mg/kg/injection, schedule: Q01DX009 (ip), vehicle: Klucel (hydroxypropylcellulose) (HPC)) was 100 % of control; the T/C (dose: 50.0 mg/kg/injection, schedule: Q01DX009 (ip), vehicle: saline with Tween-80) is 100 % of control. The T/C was 115 % of control (dose: 100.0 mg/kg/injection, schedule: Q01DX009 (ip), vehicle: Klucel (hydroxypropylcellulose) (HPC)); 91 % of control (dose: 100.0 mg/kg/injection, schedule: Q01DX009 (ip), vehicle: saline with Tween-80); 115 % of control (dose: 100.0 mg/kg/injection, schedule: Q01DX009 (ip), vehicle: saline); 104 % of control (dose: 100.0 mg/kg/injection, schedule: Q04DX003 (ip), vehicle: Klucel (hydroxypropylcellulose) (HPC)); 104 % of control (dose: 200.0 mg/kg/injection, schedule: Q04DX003 (ip), vehicle: Klucel (hydroxypropylcellulose) (HPC)); 109 % of control (dose: 400.0 mg/kg/injection, schedule: Q04DX003 (ip), vehicle: Klucel (hydroxypropylcellulose) (HPC)).

In the case of `COc1ccc2cc3[n+](cc2c1OC)CCc1cc2c(cc1-3)OCO2`, the T/C is 104 % of control (dose: 1.0 mg/kg/injection, schedule: Q01DX010 (ip), vehicle: steriod suspending solution); 122 % of control (dose: 2.0 mg/kg/injection, schedule: Q01DX010 (ip), vehicle: steriod suspending solution); 104 % of control (dose: 6.0 mg/kg/injection, schedule: Q01DX010 (ip), vehicle: saline).

In the case of `CCOC(=O)c1ccc(Oc2ncc([N+](=O)[O-])s2)cc1`, the T/C runs as follows: (dose: 1.85 mg/kg/injection, schedule: Q01DX009 (ip), vehicle: saline) 90 % of control; (dose: 3.71 mg/kg/injection, schedule: Q01DX009 (ip), vehicle: saline) 100 % of control; (dose: 7.42 mg/kg/injection, schedule: Q01DX009 (ip), vehicle: saline) 90 % of control; (dose: 10.0 mg/kg/injection, schedule: Q01DX009 (ip), vehicle: saline with Tween-80) 90 % of control; (dose: 16.0 mg/kg/injection, schedule: Q01DX009 (ip), vehicle: saline with Tween-80) 86 % of control; (dose: 24.0 mg/kg/injection, schedule: Q01DX009 (ip), vehicle: saline with Tween-80) 95 % of control.

Consider `COc1ccc2[nH]c(C)c(SC)c2c1`, for which the T/C is, setting by setting: (dose: 50.0 mg/kg/injection, schedule: Q04DX002 (ip), vehicle: saline with Tween-80) 98 % of control; (dose: 100.0 mg/kg/injection, schedule: Q04DX002 (ip), vehicle: saline with Tween-80) 100 % of control; (dose: 200.0 mg/kg/injection, schedule: Q04DX002 (ip), vehicle: saline with Tween-80) 89 % of control.

In the case of `ClCCCN1CCCCC1CCl` (centres undefined), the T/C runs as follows: (dose: 3.12 mg/kg/injection, schedule: Q04DX003 (ip), vehicle: saline) 102 % of control; (dose: 6.25 mg/kg/injection, schedule: Q01DX009 (ip), vehicle: saline) 242 % of control; (dose: 12.5 mg/kg/injection, schedule: Q01DX009 (ip), vehicle: saline) 254 % of control and 96 % of control; (dose: 12.5 mg/kg/injection, schedule: Q04DX003 (ip), vehicle: saline) 151 % of control; under setting [1], 236 % of control and 182 % of control; (dose: 40.0 mg/kg/injection, schedule: Q04DX003 (ip), vehicle: saline) 90 % of control.

Take `O=P(N1CCCCC1)(N1CC1)N1CC1`: the T/C is 103 % of control (dose: 2.2 mg/kg/injection, schedule: Q01DX009 (ip), vehicle: saline); 118 % of control (dose: 3.3 mg/kg/injection, schedule: Q01DX009 (ip), vehicle: saline); 185 % of control (dose: 7.5 mg/kg/injection, schedule: Q01DX009 (ip), vehicle: saline); 225 % of control under setting [1].

As for `CCNC(C)(C)C(SS)c1ccc(Br)cc1` (centres undefined), the T/C (dose: 6.25 mg/kg/injection, schedule: Q01DX009 (ip), vehicle: water) is 100 % of control; the T/C (dose: 12.5 mg/kg/injection, schedule: Q01DX009 (ip), vehicle: water) is 92 % of control; the T/C (dose: 25.0 mg/kg/injection, schedule: Q01DX009 (ip), vehicle: water) was 96 % of control; the T/C (dose: 25.0 mg/kg/injection, schedule: Q04DX003 (ip), vehicle: water) is 102 % of control; the T/C (dose: 50.0 mg/kg/injection, schedule: Q01DX009 (ip), vehicle: water) was 101 % of control; the T/C (dose: 50.0 mg/kg/injection, schedule: Q04DX003 (ip), vehicle: water) is 100 % of control. Further, the T/C reads like this: (dose: 100.0 mg/kg/injection, schedule: Q01DX009 (ip), vehicle: water) 109 % of control; (dose: 100.0 mg/kg/injection, schedule: Q04DX003 (ip), vehicle: water) 102 % of control; (dose: 200.0 mg/kg/injection, schedule: Q01DX009 (ip), vehicle: water) 101 % of control; (dose: 200.0 mg/kg/injection, schedule: Q04DX003 (ip), vehicle: water) 106 % of control; (dose: 400.0 mg/kg/injection, schedule: Q04DX003 (ip), vehicle: water) 90 % of control.

Consider `CO[C@H]1CC=C2CCN3CCCc4cc5c(cc4[C@]23C1)OCO5`, for which the T/C runs as follows: (dose: 10.0 mg/kg/injection, schedule: Q01DX009 (ip), vehicle: alcohol) 100 % of control; (dose: 20.0 mg/kg/injection, schedule: Q01DX009 (ip), vehicle: alcohol) 100 % of control.

Take `Cc1ncc2c[n+]([O-])ccn12`: the T/C by setting is: (dose: 50.0 mg/kg/injection, schedule: Q04DX003 (ip), vehicle: saline) 100 % of control; (dose: 100.0 mg/kg/injection, schedule: Q04DX003 (ip), vehicle: saline) 100 % of control; (dose: 200.0 mg/kg/injection, schedule: Q04DX003 (ip), vehicle: saline) 90 % of control.
